Data reported in paper PMC12118337, “Development of a Peptide Inhibitor Targeting the C‐SH2 Domain of the SHP2 Phosphatase” (Chembiochem, 2025).
Non-standard residues stand in square brackets, D forms with d. Residues, ends and D or L forms follow the SMILES beside them. *: point of attachment. 5FAM = O=C1OC2(c3ccc(O)cc3Oc3cc(O)ccc32)c2ccc(C(=O)*)cc21; Pmp = N[C@@H](Cc1ccc(CP(=O)(O)O)cc1)C(=O)O; pY = N[C@@H](Cc1ccc(OP(=O)(O)O)cc1)C(=O)O; X1 = O=C(O)C(C(=O)O)*

What was measured:
SHP2 C‐SH2 domain = molecular target: T1, SHP2 C‐SH2 domain (Homo sapiens, UniProt Q06124); test: Fluorescence polarization (FP) binding assay, SHP2 C-SH2 domain; conditions: 100 nM FAM-labelled peptide; for Kd: read-out: K D ± SEM, C‐SH2 (FP)
T1 construct: SHP2 N-SH2 domain (1–105), C-SH2 domain (106–220), PTP domain (224–541) and; His6 (pETM22 vector) (N, cleaved yes); made in house; host or cells: E. coli BL21(DE3)
T1 sequence (Q06124 106-220): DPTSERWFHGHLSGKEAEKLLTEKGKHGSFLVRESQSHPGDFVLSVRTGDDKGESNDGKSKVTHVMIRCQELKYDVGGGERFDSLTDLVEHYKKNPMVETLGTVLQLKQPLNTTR
Procedure: (§1) buffer and stored in 5 mL binding buffer at 4°C. His-tagged 3C protease (0.5 mg; EMBL) was added to the pooled eluted fractions and dialysed using Spectra Por Dialysis Tubing (MWCO 6-8 kDa, 23 mm; Spectrum Labs) in 1 L of binding buffer at 4°C for 3 hours, then overnight in fresh buffer. A new column was prepared by loading 2 mL Ni-NTA Agarose (Invitrogen) as a 50% slurry in EtOH. The column was washed with 10 mL H2O to remove the EtOH and equilibrated with 10 mL binding buffer. The protein/3C protease mixture was loaded onto the column and incubated for 1 hour at 4°C on a rocker. The flow through containing the protein was collected, the column was washed with 100 mL binding buffer and the 3C protease was eluted with 5 mL elution buffer. Protein purification was monitored by SDS-PAGE using NuPAGE 4-12% Bis-Tris Protein Gels (Invitrogen) run in MOPS buffer (50 mM MOPS, 50 mM Tris-HCl pH 7.7, 1 mM EDTA, 0.1% SDS) followed by Coomassie staining using Coomassie Brilliant Blue (Roth). The purified protein was dialysed into the final storage buffer (50 mM HEPES pH 7.5, 150 mM NaCl, 2 mM DTT, 20% glycerol). Aliquots were prepared and stored at -80°C until required. […]
(§2) 4. Fluorescence polarization
(§3) Fluorescence polarization (FP) was used to measure the binding of FAM-labelled peptides to the SHP2 C-SH2, SHP2 N-SH2, SHP2 PTP, CSK SH2 or Src SH2 domains. Each peptide was added to increasing concentrations of SHP2 C-SH2, SHP2 N-SH2, SHP2 PTP, CSK SH2 or Src SH2 protein in FP buffer (50 mM HEPES pH 7.5, 150 mM NaCl, 1 mM EDTA, 0.05% Tween 20) to give a final peptide […]
(§4) concentration of 100 nM in a final volume of 200 µL. For baseline subtraction, each peptide was added to FP buffer, instead of protein, with a final peptide concentration of 100 nM in a final volume of 200 µL. Samples were mixed gently then 3 x 60 µL of each sample was transferred into triplicate wells in a 96-well plate (OptiPlate-96 F Black; PerkinElmer). The FP was immediately measured on a Synergy H1 Microplate Reader (BioTek) with the excitation and emission monitored at 485 nm and 528 nm, respectively, over 30 minutes. FP values were automatically calculated by the Gen5 3.03 (BioTek) software associated with the microplate reader. Data were analysed in Excel 2016 by subtracting baseline values from FP values at 10 minutes. Data were then further analysed in GraphPad Prism 6 by plotting the baseline subtracted FP values against the protein concentration and fitting the data to a variable slope model of non-linear regression to obtain the KD values. Data are from three independent experiments, each performed in technical triplicates.
(§5) 5. Isothermal titration calorimetry […]
(§6) Analysis Software (Malvern Panalytical). For the data analysis, a 1:1 binding stoichiometry between the Ac-ITSM(pTyr) and SH2 domain was assumed. ITC measurements were performed once.

SHP2 N‐SH2 domain = molecular target: T2, SHP2 N‐SH2 domain (Homo sapiens, UniProt Q06124); test: Fluorescence polarization (FP) binding assay, SHP2 N-SH2 domain; conditions: 100 nM FAM-labelled peptide; for Kd: increasing N-SH2 protein, 50 mM HEPES pH 7.5, 150 mM NaCl, 1 mM EDTA, 0.05% Tween 20, FP at 10 min, three independent experiments in technical triplicates, read-out: K D ± SEM, N‐SH2 (FP)
T2 construct: SHP2 N-SH2 domain (1–105), C-SH2 domain (106–220), PTP domain (224–541) and; His6 (pETM22 vector) (N, cleaved yes); made in house; host or cells: E. coli BL21(DE3)
T2 sequence (Q06124 1-105): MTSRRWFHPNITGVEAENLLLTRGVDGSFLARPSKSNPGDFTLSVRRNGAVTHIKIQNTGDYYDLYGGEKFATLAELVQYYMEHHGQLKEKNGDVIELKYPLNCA
Procedure: as §1, §2, §3, §4, §5, §6

[1] = increasing C-SH2 protein, 50 mM HEPES pH 7.5, 150 mM NaCl, 1 mM EDTA, 0.05% Tween 20, FP at 10 min, three independent experiments in technical triplicates

SMILES	binding to the C‐SH2 domain, in words (SHP2 C‐SH2 domain)	Kd (SHP2 C‐SH2 domain; [1])	binding to the N‐SH2 domain, in words (SHP2 N‐SH2 domain)	Kd (SHP2 N‐SH2 domain)	K D ± SEM, C‐SH2 (FP) (SHP2 C‐SH2 domain; [1])
CC[C@H](C)[C@H](NC(=O)[C@@H](NC(=O)[C@H](C)NC(=O)[C@H](Cc1ccc(CP(=O)(O)O)cc1)NC(=O)[C@H](CCC(=O)O)NC(=O)[C@@H](NC(=O)[C@H](CCC(N)=O)NC(=O)[C@H](CCC(=O)O)NC(=O)c1ccc2c(c1)C(=O)OC21c2ccc(O)cc2Oc2cc(O)ccc21)[C@@H](C)O)[C@@H](C)O)C(=O)N[C@H](C(=O)N[C@@H](Cc1ccccc1)C(=O)N1CCC[C@H]1C(N)=O)C(C)C [FAM‐ITSM(Pmp)] (5FAM-EQTE[Pmp]ATIVFP-NH2)	marked decrease in binding affinity	> 2000 nM	greatly reduced binding	> 10000 nM	
CC[C@H](C)[C@H](NC(=O)[C@@H](NC(=O)[C@H](C)NC(=O)[C@H](Cc1ccc(OC(C(=O)O)C(=O)O)cc1)NC(=O)[C@H](CCC(=O)O)NC(=O)[C@@H](NC(=O)[C@H](CCC(N)=O)NC(=O)[C@H](CCC(=O)O)NC(=O)c1ccc2c(c1)C(=O)OC21c2ccc(O)cc2Oc2cc(O)ccc21)[C@@H](C)O)[C@@H](C)O)C(=O)N[C@H](C(=O)N[C@@H](Cc1ccccc1)C(=O)N1CCC[C@H]1C(N)=O)C(C)C [FAM‐ITSM(L‐OMT)] (5FAM-EQTEY(X1)ATIVFP-NH2)	retained binding	257 ± 8.3 nM		1710 ± 105 nM	
CC[C@H](C)[C@H](NC(=O)[C@@H](NC(=O)[C@H](C)NC(=O)[C@H](Cc1ccc(OP(=O)(O)O)cc1)NC(=O)[C@H](CCC(=O)O)NC(=O)[C@@H](NC(=O)[C@H](CCCCN)NC(=O)c1ccc2c(c1)C(=O)OC21c2ccc(O)cc2Oc2cc(O)ccc21)[C@@H](C)O)[C@@H](C)O)C(=O)N[C@@H](CCCCN)C(=O)N[C@@H](Cc1c[nH]cn1)C(=O)N1CCC[C@H]1C(N)=O [compound 19] (5FAM-KTE[pY]ATIKHP-NH2)		105 ± 3.6 nM			
CC[C@H](C)[C@H](NC(=O)[C@@H](NC(=O)[C@H](C)NC(=O)[C@H](Cc1ccc(OP(=O)(O)O)cc1)NC(=O)[C@H](CCC(=O)O)NC(=O)[C@H](CCC(=O)O)NC(=O)[C@H](CCCCN)NC(=O)c1ccc2c(c1)C(=O)OC21c2ccc(O)cc2Oc2cc(O)ccc21)[C@@H](C)O)C(=O)N[C@@H](CCCCN)C(=O)N[C@@H](Cc1c[nH]cn1)C(=O)N1CCC[C@H]1C(N)=O [compound 20] (5FAM-KEE[pY]ATIKHP-NH2)		> 500 nM			
CC[C@H](C)[C@H](NC(=O)[C@@H](NC(=O)[C@H](C)NC(=O)[C@H](Cc1ccc(OP(=O)(O)O)cc1)NC(=O)[C@H](CCC(=O)O)NC(=O)[C@@H](NC(=O)[C@H](CCC(N)=O)NC(=O)[C@H](CCC(=O)O)NC(=O)c1ccc2c(c1)C(=O)OC21c2ccc(O)cc2Oc2cc(O)ccc21)[C@@H](C)O)[C@@H](C)O)C(=O)N[C@H](C(=O)N[C@@H](Cc1ccccc1)C(=O)N1CCC[C@H]1C(N)=O)C(C)C [FAM‐ITSM(pTyr), reference compound] (5FAM-EQTE[pY]ATIVFP-NH2)		48.9 nM		164 ± 19.5 nM	
CC[C@H](C)[C@H](NC(=O)[C@@H](NC(=O)[C@H](C)NC(=O)[C@H](Cc1ccc(OP(=O)(O)O)cc1)NC(=O)[C@H](CCC(=O)O)NC(=O)[C@@H](NC(=O)[C@H](CCC(N)=O)NC(=O)c1ccc2c(c1)C(=O)OC21c2ccc(O)cc2Oc2cc(O)ccc21)[C@@H](C)O)C(C)C)C(=O)N[C@@H](CCCCN)C(=O)N[C@@H](Cc1ccccc1)C(=O)N1CCC[C@H]1C(N)=O [compound 14] (5FAM-QTE[pY]AVIKFP-NH2)		80.2 ± 4.32 nM		840 ± 228 nM	
CC[C@H](C)[C@H](NC(=O)[C@@H](NC(=O)[C@H](C)NC(=O)[C@H](Cc1ccc(OP(=O)(O)O)cc1)NC(=O)[C@H](CCC(=O)O)NC(=O)[C@@H](NC(=O)[C@H](CCC(N)=O)NC(=O)c1ccc2c(c1)C(=O)OC21c2ccc(O)cc2Oc2cc(O)ccc21)[C@@H](C)O)[C@@H](C)O)C(=O)N[C@H](C(=O)N[C@@H](Cc1ccccc1)C(=O)N1CCC[C@H]1C(N)=O)C(C)C [compound 11] (5FAM-QTE[pY]ATIVFP-NH2)		40.8 ± 0.96 nM		204 ± 10.4 nM	
CC(C)[C@H](NC(=O)[C@@H](NC(=O)[C@H](C)NC(=O)[C@H](Cc1ccc(OP(=O)(O)O)cc1)NC(=O)[C@H](CCC(=O)O)NC(=O)[C@@H](NC(=O)[C@H](CCC(N)=O)NC(=O)[C@H](CCC(=O)O)NC(=O)c1ccc2c(c1)C(=O)OC21c2ccc(O)cc2Oc2cc(O)ccc21)[C@@H](C)O)[C@@H](C)O)C(=O)N[C@@H](CCCCN)C(=O)N[C@@H](Cc1ccccc1)C(=O)N1CCC[C@H]1C(N)=O [compound 10] (5FAM-EQTE[pY]ATVKFP-NH2)		209 ± 14.4 nM		> 3000 nM	
CC[C@H](C)[C@H](NC(=O)[C@@H](NC(=O)[C@H](C)NC(=O)[C@H](Cc1ccc(OP(=O)(O)O)cc1)NC(=O)[C@H](CCC(=O)O)NC(=O)[C@@H](NC(=O)[C@H](CCC(N)=O)NC(=O)[C@H](CCC(=O)O)NC(=O)c1ccc2c(c1)C(=O)OC21c2ccc(O)cc2Oc2cc(O)ccc21)[C@@H](C)O)[C@@H](C)O)C(=O)N[C@@H](C)C(=O)N[C@@H](Cc1ccccc1)C(=O)N1CCC[C@H]1C(N)=O [compound 7] (5FAM-EQTE[pY]ATIAFP-NH2)		> 2000 nM		1080 ± 84 nM	
CC[C@H](C)[C@H](NC(=O)[C@@H](NC(=O)[C@H](C)NC(=O)[C@H](Cc1ccc(OP(=O)(O)O)cc1)NC(=O)[C@H](CCC(=O)O)NC(=O)[C@@H](NC(=O)[C@H](CCC(N)=O)NC(=O)c1ccc2c(c1)C(=O)OC21c2ccc(O)cc2Oc2cc(O)ccc21)[C@@H](C)O)[C@@H](C)O)C(=O)N[C@@H](CCCCN)C(=O)N[C@H](C(=O)N1CCC[C@H]1C(N)=O)[C@@H](C)CC [compound 12] (5FAM-QTE[pY]ATIKIP-NH2)		141 ± 6.2 nM			
CC(C)[C@H](NC(=O)[C@H](C)NC(=O)[C@@H](NC(=O)[C@H](C)NC(=O)[C@H](Cc1ccc(OP(=O)(O)O)cc1)NC(=O)[C@H](CCC(=O)O)NC(=O)[C@@H](NC(=O)[C@H](CCC(N)=O)NC(=O)[C@H](CCC(=O)O)NC(=O)c1ccc2c(c1)C(=O)OC21c2ccc(O)cc2Oc2cc(O)ccc21)[C@@H](C)O)[C@@H](C)O)C(=O)N[C@@H](Cc1ccccc1)C(=O)N1CCC[C@H]1C(N)=O [compound 6] (5FAM-EQTE[pY]ATAVFP-NH2)				> 10000 nM	no binding
CC[C@H](C)[C@H](NC(=O)[C@H](C)NC(=O)[C@H](C)NC(=O)[C@H](Cc1ccc(OP(=O)(O)O)cc1)NC(=O)[C@H](CCC(=O)O)NC(=O)[C@@H](NC(=O)[C@H](CCC(N)=O)NC(=O)[C@H](CCC(=O)O)NC(=O)c1ccc2c(c1)C(=O)OC21c2ccc(O)cc2Oc2cc(O)ccc21)[C@@H](C)O)C(=O)N[C@H](C(=O)N[C@@H](Cc1ccccc1)C(=O)N1CCC[C@H]1C(N)=O)C(C)C [compound 5] (5FAM-EQTE[pY]AAIVFP-NH2)		126 ± 6.2 nM		1140 ± 585 nM	
CC[C@H](C)[C@H](NC(=O)[C@@H](NC(=O)[C@H](C)NC(=O)[C@H](Cc1ccc(OP(=O)(O)O)cc1)NC(=O)[C@H](CCC(=O)O)NC(=O)[C@@H](NC(=O)[C@H](CCCCN)NC(=O)c1ccc2c(c1)C(=O)OC21c2ccc(O)cc2Oc2cc(O)ccc21)[C@@H](C)O)[C@@H](C)O)C(=O)N[C@@H](CCCCN)C(=O)N[C@@H](Cc1ccccc1)C(=O)N1CCC[C@H]1C(N)=O [compound 15] (5FAM-KTE[pY]ATIKFP-NH2)		61.5 ± 1.83 nM		1550 ± 528 nM	
